The test system of data set [1] is JIMT-1, MDA-MB-436, MDA-MB-157 and BT-474 T-DM1R cell lines. Description: Cell viability (SRB) of breast cancer cell lines, three TACC3 inhibitors compared. The following applies: all cell lines tested, 72 hours. The data set is classed as cell-based, human. The protocol:
(§1) JIMT-1, MDA-MB-436, MDA-MB-157 and BT-474 T-DM1R cell lines were tested with respect to their response to these three drugs. […] Although higher KHS101 doses was included, which were used by others (Campo & Breuer, 2018), an induction of these markers was only observed at very high doses.

The test system of data set [2] is JIMT-1 cells. The data set is described as follows: Western blot of mitotic arrest, DNA damage and apoptosis markers. The following applies: 24 hours, dose response. In kind it is cell-based, human. The protocol: as §1
Data set [3] relates to JIMT-1 cells. Description: Immunofluorescence of aberrant spindle formation. In kind it is cell-based, human. The following applies: highest dose, 12 h. From the text:
The presence of spindle defects activates the spindle assembly checkpoint (SAC) that further leads to mitotic arrest to provide the necessary time for repairing the spindle defects (Musacchio and Salmon 2007). […] To further test the contribution of an active SAC signaling to compound 5-induced mitotic arrest, DNA damage and cell death, we inhibited the SAC kinase, Mps1 using a specific inhibitor (TC Mps1 (Choi, Min et al. 2017)) in compound 5-treated cells, and analyzed the expression of relevant markers.
Immunofluorescence staining of JIMT-1 cells were performed as previously described (Cizmecioglu, Arnold et al. 2010). Basically, 1.5×10^5 JIMT-1 cells/well were seeded on glass coverslip in 6-well plates. […] Then, they are fixed with ice-cold methanol for 10 min at −20° C. Cells were then blocked with 3% BSA in PBS solution for 1 hour at RT and incubated with primary and secondary antibodies for 1 hour at RT. Cells were counter stained with DAPI for 5 min (0.01 μg/ml). Lastly, cover slides were mounted using ImmunoHistomounth (Santa Cruz). Images were taken with an upright fluorescent microscope equipped with DIC prisms (upright).

The test system of a further data set is RT112 and RT4. Description: Cell viability (SRB) of FGFR3-TACC3 fusion expressing cell lines. In kind it is cell-based, human. Particulars: both models RT112 and RT4, 3 days.
The test system of the next data set is MCF-12A. Description: Cell viability of normal breast epithelial cells. The data set is classed as cell-based, human. The following applies: 5, 10 μM. The protocol:
Next, the specificity of compound 5 towards cancer cell lines over normal cells were tested. […] To test the transforming potential of TACC3 and dependency of cells to TACC3 to survive, we performed a clonogenic growth assay in MCF-12A cells after overexpressing TACC3. […] To exclude the possibility that the differences we observed between cancer and normal cells are due to the differences in the proliferation rates of these cells, we calculated their doubling times.

The test system of another data set is CT26. The following applies: 25-50 mg/kg daily and orally. The protocol:
(§2) Female nude mice and Balb/c mice were injected with human colon carcinoma cell line, HCT-116, and murine colon carcinoma cell line, CT26, respectively, into flank region of mice.
(§3) 4×10^6 HCT-116 and 1×10^6 cells were prepared either in matrigel:PBS or in PBS, respectively, and injected subcutaneously into flank region of mice. […] Mice body weight was measured regularly.

The test system of a further data set is HCT-116. Particulars: 25-50 mg/kg daily and orally. The protocol:
as §2, §3

Another data set relates to 4T1-Luc2. The data set is described as follows: 4T1-Luc2 lung metastasis model. In kind it is in vivo, mice. The protocol: Next, to examine the effects of TACC3 inhibition on metastatic growth, an aggressive murine mammary tumor cells, 4T1-Luc2 (luciferase labelled), were injected intravenously to immunocompetent female mice. […] Metastatic outgrowth was monitored with in vivo imaging system (IVIS) by measuring bioluminescence.
Highly aggressive and metastatic 4T1-Luc2 (luciferase labelled) cells were prepared in PBS as 1×10^6 cells/mouse and injected intravenously to Balb/c female mice. Metastasis development was monitored using in vivo imaging system (IVIS) and bioluminescence was quantified regularly. […] Survival was calculated when mice died.

The procedure of data set [4]: Mice body weight was measured regularly, and organs were collected for determination of possible toxicity.
The next data set has as its target CYP2CD6 (Homo sapiens, UniProt P10635). The following applies: read-out: IC50 CYP2CD6; human liver microsomes.
For data set [5], the target named is T1, TACC3 (Homo sapiens, UniProt Q9Y6A5). The data set is described as follows: Isothermal titration calorimetry (ITC) of TACC3 into compound 5. In kind it is binding. More on the design: purchased Origene TP310754. The following applies: 25° C. The protocol: (§4) DARTS is a label free-strategy to identify potential direct protein targets for small molecules and is based on stabilization and protection from proteolysis of the target protein upon binding to small molecules (Lomenick, Jung et al. 2011, Pai, Lomenick et al. 2015).
Titrations were carried out using Microcal 200 equipment (GE Healthcare, Austria) at 25° C. For each titration, 10 injections were made with 6 min spacing. The reference power was set at 2 μcal/sec, and the sample cell was continuously stirred at 500 rpm. In order to assess the binding efficiency between drug and protein, background data obtained by protein injected into buffer alone was subtracted from the experimental isotherms. The data was analyzed using Origin 7 Software provided along with the ITC200, and binding parameters such as association constant (Ka), number of binding sites (N) and enthalpy (ΔH) were calculated.
Background: Isothermal titration calorimetry measures the heat released or taken up as one component is titrated into another.

For data set [6], the target named is T1, TACC3. The data set is described as follows: Cellular thermal shift assay (CETSA) in intact JIMT-1 cells. The data set is classed as binding. Set-up: endogenous in cells; host or cells: JIMT-1. The following applies: 1 μM, 6 h. From the text: Protein thermal melting curves are also showing a thermal shift between vehicle and compound 5 treated band intensities. This interaction was also validated with isothermal titration calorimetry (ITC). […] DARTS is a label free-strategy to identify potential direct protein targets for small molecules and is based on stabilization and protection from proteolysis of the target protein upon binding to small molecules (Lomenick, Jung et al. 2011, Pai, Lomenick et al. 2015).
After treatment, cell pellets were resuspended in Tris-buffered saline (TBS) containing protease and phosphatase inhibitors. The cell suspension was divided into 6 PCR tubes and heated for 5 min to 45, 46, 47, 48, 49, 50° C. Subsequently, cells were lysed by three repeated freeze-thaw cycles with liquid nitrogen. Soluble proteins were collected with centrifugation at 20,000 g for 20 min at 4° C. and analyzed by sodium dodecyl sulfate polyacrylamide gel electrophoresis (SDS-PAGE) followed by western blot analysis.

Data set [7] concerns the target T1, TACC3. The data set is described as follows: Drug affinity responsive target stability (DARTS) with JIMT-1 cell protein extracts. In kind it is binding. More on the design: endogenous in cells; host or cells: JIMT-1. The following applies: 10 μM.
Excerpt: as §4

The text below walks through data of patent US20230027854A1, “ISOXAZOLE DERIVATIVES TARGETING TACC3 AS ANTICANCER AGENTS” (A2A Pharmaceuticals, inc., priority 2019, published 2023).

pIC50, pKd: −log10 of the molar value.

Chain of CYP2CD6 (P10635 whole entry): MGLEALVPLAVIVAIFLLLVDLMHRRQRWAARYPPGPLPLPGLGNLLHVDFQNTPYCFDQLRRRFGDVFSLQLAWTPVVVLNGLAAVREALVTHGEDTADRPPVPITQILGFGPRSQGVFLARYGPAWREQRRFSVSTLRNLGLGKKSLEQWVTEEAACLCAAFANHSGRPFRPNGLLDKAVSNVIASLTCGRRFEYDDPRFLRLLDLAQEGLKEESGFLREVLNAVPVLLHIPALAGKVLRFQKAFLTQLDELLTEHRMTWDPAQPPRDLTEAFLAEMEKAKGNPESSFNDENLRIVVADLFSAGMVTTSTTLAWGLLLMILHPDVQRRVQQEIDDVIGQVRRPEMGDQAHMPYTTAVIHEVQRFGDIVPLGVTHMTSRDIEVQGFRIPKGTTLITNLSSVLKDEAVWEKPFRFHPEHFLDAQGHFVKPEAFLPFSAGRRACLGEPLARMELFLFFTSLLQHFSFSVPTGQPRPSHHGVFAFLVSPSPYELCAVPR
Method for RT112 and RT4: KHS101 (Sigma Aldrich) and SPL-B (Axon MedChem, VA, USA) were dissolved in 100% DMSO to yield a stock concentration of 50 mM. Newly synthesized molecules were dissolved in 100% DMSO to yield a stock concentration of 10 mM. […] Cell viability was measured 72 hours after treatment with Sulforhodamine B (SRB, Sigma Aldrich) assay as recommended by the manufacturer.

For `COc1ccc(-c2cc(Nc3ccnc(N4CCOCC4)n3)on2)cc1` [Compound 5], the “IC50 values compared with KHS101 and SPL-B” value in data set [1] is “significantly lower IC50 values”. For the same compound, in the data set with JIMT-1 cells [2], the “induction of mitotic arrest, DNA damage and apoptosis markers” value is “dose-dependent manner”. Besides, the “frequency of multipolar spindles” value with JIMT-1 cells [3] worked out at 73.4%. In addition, the “IC50 value compared to SPL-B and KHS101” value in the data set on RT112 and RT4 was “lowest IC50 value”. In addition, the “growth inhibition of cells at high doses” value in the data set with MCF-12A is given as “did not reach to 50% growth inhibition”. In the data set on CT26, the tolerability entry is reported as “well tolerated” and the tumor growth result is “significantly impaired tumor growth”. In the data set with HCT-116, the tolerability entry is “well tolerated” and the tumor growth result is recorded as “significantly impaired tumor growth”. In addition, in the data set with 4T1-Luc2 (50 mg/kg daily orally), the “metastatic growth compared to vehicle” value is on record as “impair metastatic growth” and the overall survival entry was “significantly improved mice overall survival”. This compound also displayed a median survival with 4T1-Luc2 (50 mg/kg every day orally, vehicle 19 days) of 28 days. Moreover, the “body weight and observable toxicity” value in data set [4] (100 mg/kg daily for 7 days) was “did not affect body weight”. Also, in data set [4] (500 mg/kg once), the organ toxicity entry is “no organ toxicity was observable”. Also, in data set [4] (500 mg/kg once, 24 h after drug treatment), the “loss of body weight” value is given as 10%. In addition, the pIC50 – broadly, −log10 of the IC50, conventionally taken in molar units – on CYP2CD6 was 4.73. At TACC3 [5], the pKd (usually the negative decadic logarithm of the Kd, by convention in mol/L) was 8.82; the “N (number of binding sites)” value came to 0.704; the ΔH came to 49290 kcal/mol; the ΔS worked out at 1.65E5 cal/mol/deg. At TACC3 [6], the “stabilization of cellular TACC3 upon temperature increase” value is given as “considerably stabilized cellular TACC3”. The “stabilization of TACC3 protein in the presence of pronase” value at TACC3 [7] is given as “TACC3 protein was stabilized”.
